What was measured:
Details in all cases: synthetic library passage 3, intravenous, relative to wild-type AAV9
[1] = tested on: brain, spinal cord, and DRG of the NHPs; assay: NGS fold enrichment of synthetic library (passage 3) in NHPs, first cross-species screen; type: in vivo, cynomolgus macaques (Macaca fascicularis)
In short: (§1)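 Fold enrichment versus wild-type AAV9 was derived by NGS of RT-PCR-amplified RNA from nervous tissue, collected e.g. 28 days after IV dosing […]. The library (passage 3) was given to two NHPs aged 2-4 years and to 6-8-week BALB/c and C57Bl/6 mice (n=3 each).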

brain [2] = assay: NGS fold enrichment of synthetic library (passage 3) in BALB/c mice, first cross-species screen; type: in vivo
In short: as §1

brain [3] = assay: NGS fold enrichment of synthetic library (passage 3) in C57Bl/6 mice, first cross-species screen; type: in vivo
In short: as §1

[4] = RNA from spinal cord of NHPs, NGS
[5] = RNA from brain of BALB/c mice, NGS
[6] = RNA from brain of C57Bl/6 mice, NGS

Row | Sequence | Fold enrichment over AAV9 in the brain of NHPs ([1]; RNA NGS, brain of NHPs) | Fold enrichment over AAV9 in the spinal cord of NHPs ([1]; RNA NGS, spinal cord of NHPs) | Fold enrichment over AAV9 in the brain of Mice (BALB/c) (brain [2]; RNA NGS, brain of BALB/c mice) | Fold enrichment over AAV9 in the brain of Mice (C57Bl/6) (brain [3]; RNA NGS, brain of C57Bl/6 mice) | Fold enrichment over AAV9 in the brain of NHPs ([1]; RNA from brain of NHPs, NGS) | Fold enrichment over AAV9 in the spinal cord of NHPs [1, 4] | Fold enrichment over AAV9 in the brain of Mice (BALB/c) (brain [2]; [5]) | Fold enrichment over AAV9 in the brain of Mice (C57Bl/6) (brain [3]; [6])
1 | GSGQTVVRIANQQT | 1.046 fold | 4.156 fold | 0.390 fold | 0.661 fold | – | – | – | –
2 | GSGQVAYAQGNQQT | – | – | – | – | 1.259 fold | 1.309 fold | 0.313 fold | 0.734 fold
3 | GSGQVGRLLQNQQT | 1.899 fold | 1.762 fold | 0.748 fold | 0.773 fold | – | – | – | –
4 | GSGQVHASQVNQKT | 1.049 fold | 0.503 fold | 0.767 fold | 0.855 fold | – | – | – | –
5 | GSGQVHNPTQNQQT | – | – | – | – | 1.410 fold | 2.488 fold | 0.542 fold | 1.021 fold
6 | GSGQVHQAEVNQQT | 1.825 fold | 0.152 fold | 0.287 fold | 0.436 fold | – | – | – | –
7 | GSGQVVAHVGNQQT | 1.901 fold | 0.833 fold | 0.321 fold | 0.800 fold | – | – | – | –
8 | GSGQVVGLSGNQQT | 2.052 fold | 7.212 fold | 0.881 fold | 0.785 fold | – | – | – | –
9 | GSGQVYISTPNQQT | – | – | – | – | 1.367 fold | 0.000 fold | 0.282 fold | 0.859 fold
10 | GSGQYANHGINQQT | 1.820 fold | 5.717 fold | 0.701 fold | 0.906 fold | – | – | – | –
11 | GSGQYASSIPNQQT | 2.346 fold | 3.321 fold | 0.489 fold | 1.022 fold | – | – | – | –
12 | GSGQYRSSSDNQQT | – | – | – | – | 1.369 fold | 6.209 fold | 0.409 fold | 0.681 fold
13 | GSGQYVHVSSNQQT | – | – | – | – | 1.137 fold | 1.803 fold | 0.366 fold | 0.739 fold
14 | GSGRHLASVQNQQT | – | – | – | – | 1.187 fold | 1.024 fold | 0.606 fold | 0.654 fold
15 | GSGRLVPNGPNQQT | 2.314 fold | 3.925 fold | 0.411 fold | 0.639 fold | – | – | – | –
16 | GSGRNPQTQPLQQT | 1.519 fold | 0.040 fold | 0.573 fold | 0.733 fold | – | – | – | –
17 | GSGSDMSSWQNQQT | 1.651 fold | 0.175 fold | 0.303 fold | 0.281 fold | – | – | – | –

Source: US20260250318A1, “COMPOSITIONS AND METHODS FOR CROSSING THE BLOOD BRAIN BARRIER” (VOYAGER THERAPEUTICS, INC., priority 2022, published 2026)
